This note sets out measurements from publication PMC5218480 (PLoS ONE, 2017).

This assay relates to MV-4-11 cells. The assay can be described thus: Gene expression microarray analysis (Affymetrix PrimeView) and GSEA. The class given is cell-based, human. Set-up: RFU PODN (11730768_x_at) / Fold change /veh PODN (11730768_x_at) / RFU LINC00158 (11744669_a_at) / Fold change /veh LINC00158 (11744669_a_at) / RFU DUSP10 (11751237_a_at) / Fold change /veh DUSP10 (11751237_a_at) / RFU ID3 (11757404_x_at) / Fold change /veh ID3 (11757404_x_at) / RFU PLEKHG5 (11737974_s_at) / Fold change /veh PLEKHG5 (11737974_s_at) / RFU LRRC4B (11730491_at) / Fold change /veh LRRC4B (11730491_at) / RFU GIMAP4 (11747438_a_at) / Fold change /veh GIMAP4 (11747438_a_at) / RFU KRT8 (11758183_x_at) / Fold change /veh KRT8 (11758183_x_at) / RFU CNN1 (11734310_a_at) / Fold change /veh CNN1 (11734310_a_at) / RFU VPS37D (11726825_at) / Fold change /veh VPS37D (11726825_at) / RFU C10orf10 (11716522_x_at) / Fold change /veh C10orf10 (11716522_x_at) / RFU KIR2DL2 /// KIR2DL4 /// KIR2DL5A /// KIR2DL5B /// KIR2DS1 /// KIR2DS2 /// KIR2DS3 /// KIR2DS4 /// KIR3DL3 /// KIR3DL3 /// KIR3DS1 (11738374_at) / Fold change /veh KIR2DL2 /// KIR2DL4 /// KIR2DL5A /// KIR2DL5B /// KIR2DS1 /// KIR2DS2 /// KIR2DS3 /// KIR2DS4 /// KIR3DL3 /// KIR3DL3 /// KIR3DS1 (11738374_at) / RFU C1QL1 (11718748_at) / Fold change /veh C1QL1 (11718748_at) / RFU TMPRSS4 (11747572_a_at) / Fold change /veh TMPRSS4 (11747572_a_at) / RFU HAMP (11756126_x_at) / Fold change /veh HAMP (11756126_x_at) / RFU RNFT2 (11725882_a_at) / Fold change /veh RNFT2 (11725882_a_at) / RFU NR4A2 (11747474_a_at) / Fold change /veh NR4A2 (11747474_a_at) / RFU ABCC12 (11746883_a_at) / Fold change /veh ABCC12 (11746883_a_at) / RFU TMEM136 (11760407_x_at) / Fold change /veh TMEM136 (11760407_x_at) / RFU CLDN22 /// WWC2 (11732394_at) / Fold change /veh CLDN22 /// WWC2 (11732394_at) / RFU HLA-DPB1 (11760878_x_at) / Fold change /veh HLA-DPB1 (11760878_x_at) / RFU SPINT1 (11716480_a_at) / Fold change /veh SPINT1 (11716480_a_at) / RFU GAP43 (11754022_s_at) / Fold change /veh GAP43 (11754022_s_at) / RFU A4GNT (11735810_at) / Fold change /veh A4GNT (11735810_at) / RFU PRB3 (11715151_x_at) / Fold change /veh PRB3 (11715151_x_at) / RFU TUBB4B (11761932_at) / Fold change /veh TUBB4B (11761932_at) / RFU CAPN14 (11732068_a_at) / Fold change /veh CAPN14 (11732068_a_at) / RFU TMCC2 (11721928_a_at) / Fold change /veh TMCC2 (11721928_a_at) / RFU IRGQ (11745062_a_at) / Fold change /veh IRGQ (11745062_a_at) / RFU FAM174B (11720279_a_at) / Fold change /veh FAM174B (11720279_a_at) / RFU TMPRSS4 (11748680_a_at) / Fold change /veh TMPRSS4 (11748680_a_at) / RFU FAM212B (11763350_a_at) / Fold change /veh FAM212B (11763350_a_at) / RFU PLEKHG5 (11743358_a_at) / Fold change /veh PLEKHG5 (11743358_a_at) / RFU ZSCAN30 (11745921_a_at) / Fold change /veh ZSCAN30 (11745921_a_at) / RFU CMKLR1 (11741424_a_at) / Fold change /veh CMKLR1 (11741424_a_at) / RFU LOC101060620 /// MAPK8IP1 (11723275_at) / Fold change /veh LOC101060620 /// MAPK8IP1 (11723275_at) / RFU SPTSSB (11747773_x_at) / Fold change /veh SPTSSB (11747773_x_at) / RFU PRSS12 (11739890_at) / Fold change /veh PRSS12 (11739890_at) / RFU BIN1 (11741810_x_at) / Fold change /veh BIN1 (11741810_x_at) / RFU WNT11 (11732464_a_at) / Fold change /veh WNT11 (11732464_a_at) / RFU C10orf10 (11716521_a_at) / Fold change /veh C10orf10 (11716521_a_at) / RFU C5orf56 (11738089_at) / Fold change /veh C5orf56 (11738089_at) / RFU CYB561 (11721691_x_at) / Fold change /veh CYB561 (11721691_x_at) / RFU ANKRD19P (11752326_a_at) / Fold change /veh ANKRD19P (11752326_a_at) / RFU OR2T12 /// OR2T33 /// OR2T8 (11738714_s_at) / Fold change /veh OR2T12 /// OR2T33 /// OR2T8 (11738714_s_at) / RFU VCAN (11748164_a_at) / Fold change /veh VCAN (11748164_a_at) / RFU JSRP1 (11732532_at) / Fold change /veh JSRP1 (11732532_at) / RFU KRTAP10-11 (11738290_x_at) / Fold change /veh KRTAP10-11 (11738290_x_at) / RFU MYO3A (11730013_a_at) / Fold change /veh MYO3A (11730013_a_at) / RFU EBF3 (11725865_a_at) / Fold change /veh EBF3 (11725865_a_at) / RFU CAMK2N1 (11719241_x_at) / Fold change /veh CAMK2N1 (11719241_x_at) / RFU C5orf56 (11738088_a_at) / Fold change /veh C5orf56 (11738088_a_at) / RFU OLFML3 (11715873_a_at) / Fold change /veh OLFML3 (11715873_a_at) / RFU LOC100653217 /// NTM (11731650_a_at) / Fold change /veh LOC100653217 /// NTM (11731650_a_at) / RFU MAPK11 (11762145_a_at) / Fold change /veh MAPK11 (11762145_a_at) / RFU FIZ1 (11724087_x_at) / Fold change /veh FIZ1 (11724087_x_at) / RFU OASL (11726364_x_at) / Fold change /veh OASL (11726364_x_at) / RFU SOX15 (11748057_x_at) / Fold change /veh SOX15 (11748057_x_at) / RFU CD79A (11719716_a_at) / Fold change /veh CD79A (11719716_a_at) / RFU HIST1H1D (11736915_at) / Fold change /veh HIST1H1D (11736915_at) / RFU CASKIN2 (11723855_a_at) / Fold change /veh CASKIN2 (11723855_a_at) / RFU LOC730098 (11760151_x_at) / Fold change /veh LOC730098 (11760151_x_at) / RFU OR4N2 (11742367_at) / Fold change /veh OR4N2 (11742367_at) / RFU PRRT2 (11749266_a_at) / Fold change /veh PRRT2 (11749266_a_at) / RFU SNX32 (11753110_a_at) / Fold change /veh SNX32 (11753110_a_at) / RFU CDHR5 (11726645_a_at) / Fold change /veh CDHR5 (11726645_a_at) / RFU RCAN1 (11760418_a_at) / Fold change /veh RCAN1 (11760418_a_at) / RFU FAM167A (11723789_a_at) / Fold change /veh FAM167A (11723789_a_at) / RFU FAM26E (11764081_at) / Fold change /veh FAM26E (11764081_at) / RFU ISYNA1 (11749810_s_at) / Fold change /veh ISYNA1 (11749810_s_at) / RFU ACY1 (11761880_at) / Fold change /veh ACY1 (11761880_at) / RFU 11764098_at / Fold change /veh 11764098_at / RFU SAMD14 (11745864_x_at) / Fold change /veh SAMD14 (11745864_x_at) / RFU NPB (11741838_a_at) / Fold change /veh NPB (11741838_a_at) / RFU TMPRSS6 (11731388_a_at) / Fold change /veh TMPRSS6 (11731388_a_at) / RFU KRTAP10-2 (11738614_at) / Fold change /veh KRTAP10-2 (11738614_at) / RFU ARHGAP8 /// PRR5-ARHGAP8 (11727945_x_at) / Fold change /veh ARHGAP8 /// PRR5-ARHGAP8 (11727945_x_at) / RFU KRTAP5-7 /// NADSYN1 (11734609_at) / Fold change /veh KRTAP5-7 /// NADSYN1 (11734609_at) / RFU RASL12 (11751679_a_at) / Fold change /veh RASL12 (11751679_a_at) / RFU CDKN2B (11736163_a_at) / Fold change /veh CDKN2B (11736163_a_at) / RFU PRF1 (11729649_at) / Fold change /veh PRF1 (11729649_at) / RFU, ZNF638 /// ZNF638-IT1 / Fold change vs veh, ZNF638 /// ZNF638-IT1 / RFU, PANK3 / Fold change vs veh, PANK3 / RFU, SH3YL1 / Fold change vs veh, SH3YL1 / RFU, ZEB2 / Fold change vs veh, ZEB2 / RFU, NRIP1 / Fold change vs veh, NRIP1 / RFU, PTTG1IP / Fold change vs veh, PTTG1IP / RFU, CAPN2 / Fold change vs veh, CAPN2 / RFU, MED14 / Fold change vs veh, MED14 / RFU, SNORA58 / Fold change vs veh, SNORA58 / RFU, C1orf63 / Fold change vs veh, C1orf63 / RFU, LRRFIP1 / Fold change vs veh, LRRFIP1 / RFU, NDUFAF7 / Fold change vs veh, NDUFAF7 / RFU, SLC12A2 / Fold change vs veh, SLC12A2 / RFU, IBTK / Fold change vs veh, IBTK / RFU, ESF1 / Fold change vs veh, ESF1 / Fold change vs veh, TMEM50B / RFU, TAOK1 / Fold change vs veh, TAOK1 / RFU, ACBD3 / Fold change vs veh, ACBD3 / RFU, TMA16 / Fold change vs veh, TMA16 / RFU, RWDD3 / Fold change vs veh, RWDD3 / RFU, BCAT1 / Fold change vs veh, BCAT1 / RFU, EDEM3 / Fold change vs veh, EDEM3 / RFU, TMEM33 / Fold change vs veh, TMEM33 / RFU, WDR75 / Fold change vs veh, WDR75 / RFU, AHCTF1 / Fold change vs veh, AHCTF1 / RFU, TFRC / Fold change vs veh, TFRC / RFU, ZDHHC17 / Fold change vs veh, ZDHHC17 / RFU, NOM1 / Fold change vs veh, NOM1 / RFU, ARL8B / Fold change vs veh, ARL8B / RFU, ZBTB11 / Fold change vs veh, ZBTB11 / RFU, TAMM41 / Fold change vs veh, TAMM41 / RFU, KIAA1704 /// LOC100996395 / Fold change vs veh, KIAA1704 /// LOC100996395 / RFU, ING1 / Fold change vs veh, ING1 / RFU, TRMT61B / Fold change vs veh, TRMT61B / RFU, FUBP3 / Fold change vs veh, FUBP3 / RFU, TP53 / Fold change vs veh, TP53 / RFU, TNKS2 / Fold change vs veh, TNKS2 / RFU, ZFP14 / Fold change vs veh, ZFP14 / RFU, ACTR2 / Fold change vs veh, ACTR2 / RFU, PPP3R1 / Fold change vs veh, PPP3R1 / RFU, PIK3R1 / Fold change vs veh, PIK3R1 / RFU, HNRNPA1 / Fold change vs veh, HNRNPA1 / RFU, RNF170 / Fold change vs veh, RNF170 / RFU, ZNF28 / Fold change vs veh, ZNF28 / RFU, RNGTT / Fold change vs veh, RNGTT / RFU, OGT / Fold change vs veh, OGT / RFU, BRD1 / Fold change vs veh, BRD1 / RFU, MARS / Fold change vs veh, MARS / RFU, ZNF655 / Fold change vs veh, ZNF655 / RFU, FAHD1 / Fold change vs veh, FAHD1 / RFU, BDP1 / Fold change vs veh, BDP1 / RFU, LRRCC1 / Fold change vs veh, LRRCC1 / RFU, ARID1A / Fold change vs veh, ARID1A / RFU, ZNF146 / Fold change vs veh, ZNF146 / RFU, ZNF330 / Fold change vs veh, ZNF330 / RFU, GPN3 / Fold change vs veh, GPN3 / RFU, C9orf123 / Fold change vs veh, C9orf123 / RFU, N4BP2L2 / Fold change vs veh, N4BP2L2 / RFU, ARFIP1 / Fold change vs veh, ARFIP1 / RFU, FAM179B / Fold change vs veh, FAM179B / RFU, BCL10 / Fold change vs veh, BCL10 / RFU, UHRF1BP1L / Fold change vs veh, UHRF1BP1L / RFU, BET1 / Fold change vs veh, BET1 / RFU, CNOT2 / Fold change vs veh, CNOT2 / RFU, ZNF268 / Fold change vs veh, ZNF268 / Fold change vs veh, ZNF507 / RFU, DGCR2 / Fold change vs veh, DGCR2 / RFU, WDSUB1 / Fold change vs veh, WDSUB1 / Fold change vs veh, HSP90B1 /// MIR3652 / RFU, ADSS / Fold change vs veh, ADSS / RFU, GK / Fold change vs veh, GK / RFU, ZNF148 / Fold change vs veh, ZNF148 / RFU, TAF9 / Fold change vs veh, TAF9 / RFU, SLC1A5 / Fold change vs veh, SLC1A5 / RFU, SLMO2 / Fold change vs veh, SLMO2 / RFU, ABCC4 / Fold change vs veh, ABCC4 / RFU, LOC101060439 /// RAP1B / Fold change vs veh, LOC101060439 /// RAP1B / RFU, RFX7 / Fold change vs veh, RFX7 / RFU, GTPBP10 / Fold change vs veh, GTPBP10 / RFU, CNEP1R1 / Fold change vs veh, CNEP1R1 / RFU, BIVM-ERCC5 /// ERCC5 / Fold change vs veh, BIVM-ERCC5 /// ERCC5 / RFU, ILF3 / Fold change vs veh, ILF3 / RFU 11762660_at / Fold change /veh 11762660_at / RFU VCAN (11757783_s_at) / Fold change /veh VCAN (11757783_s_at) / RFU DDX43 (11728927_at) / Fold change /veh DDX43 (11728927_at) / RFU KRT8 (11758188_x_at) / Fold change /veh KRT8 (11758188_x_at) / RFU NKD1 (11759106_at) / Fold change /veh NKD1 (11759106_at) / RFU SRD5A1 (11742802_a_at) / Fold change /veh SRD5A1 (11742802_a_at) / RFU TPSAB1 /// TPSB2 (11721975_s_at) / Fold change /veh TPSAB1 /// TPSB2 (11721975_s_at) / RFU GSTM3 (11746129_a_at) / Fold change /veh GSTM3 (11746129_a_at) / RFU IL23R (11737362_x_at) / Fold change /veh IL23R (11737362_x_at) / RFU TMEM51 (11727254_a_at) / Fold change /veh TMEM51 (11727254_a_at) / RFU PIWIL2 (11732686_x_at) / Fold change /veh PIWIL2 (11732686_x_at) / RFU ORM1 (11744905_x_at) / Fold change /veh ORM1 (11744905_x_at) / RFU CCDC152 (11743942_at) / Fold change /veh CCDC152 (11743942_at) / RFU ECM1 (11717891_a_at) / Fold change /veh ECM1 (11717891_a_at) / RFU IL23R (11748794_a_at) / Fold change /veh IL23R (11748794_a_at) / RFU TNFAIP8L3 (11732012_x_at) / Fold change /veh TNFAIP8L3 (11732012_x_at) / RFU MBOAT4 (11741988_at) / Fold change /veh MBOAT4 (11741988_at) / RFU 11764193_at / Fold change /veh 11764193_at / RFU TMEM53 (11763286_at) / Fold change /veh TMEM53 (11763286_at) / RFU MAGEB2 (11727129_at) / Fold change /veh MAGEB2 (11727129_at) / RFU TMEM200A (11744735_a_at) / Fold change /veh TMEM200A (11744735_a_at) / RFU CCDC152 (11751479_a_at) / Fold change /veh CCDC152 (11751479_a_at) / RFU FAM211A (11726209_a_at) / Fold change /veh FAM211A (11726209_a_at) / RFU RGS16 (11746705_a_at) / Fold change /veh RGS16 (11746705_a_at) / RFU VCAN (11755009_s_at) / Fold change /veh VCAN (11755009_s_at) / RFU RHOB (11743442_s_at) / Fold change /veh RHOB (11743442_s_at) / RFU RGS16 (11720943_a_at) / Fold change /veh RGS16 (11720943_a_at) / RFU RGS16 (11720944_at) / Fold change /veh RGS16 (11720944_at) / RFU, VPS4B / Fold change vs veh, VPS4B / RFU, CREB1 / Fold change vs veh, CREB1 / RFU, DNAJC13 / Fold change vs veh, DNAJC13 / RFU, GNAQ / Fold change vs veh, GNAQ / RFU, CDK5R1 / Fold change vs veh, CDK5R1 / RFU, ZRANB3 / Fold change vs veh, ZRANB3 / RFU, CUL4A / Fold change vs veh, CUL4A / RFU, CCNY / Fold change vs veh, CCNY / RFU, UFL1 / Fold change vs veh, UFL1 / RFU, COG3 / Fold change vs veh, COG3 / RFU, DIAPH2 / Fold change vs veh, DIAPH2 / RFU, SKA2 / Fold change vs veh, SKA2 / RFU, AFF3 / Fold change vs veh, AFF3 / RFU, LMF1 / Fold change vs veh, LMF1 / RFU, IPO11 / Fold change vs veh, IPO11 / RFU, DFFB / Fold change vs veh, DFFB / RFU, FOXP1 / Fold change vs veh, FOXP1 / RFU, CARD8 / Fold change vs veh, CARD8 / RFU, STRN3 / Fold change vs veh, STRN3 / RFU, ADK / Fold change vs veh, ADK / RFU, RASSF2 / Fold change vs veh, RASSF2 / RFU, WIPF1 / Fold change vs veh, WIPF1 / RFU, LARP1B / Fold change vs veh, LARP1B / RFU, RASA1 / Fold change vs veh, RASA1 / RFU, RB1 / Fold change vs veh, RB1 / RFU, PPFIA1 / Fold change vs veh, PPFIA1 / RFU, MAT2A / Fold change vs veh, MAT2A / RFU, CCT5 / Fold change vs veh, CCT5 / RFU, WDR92 / Fold change vs veh, WDR92 / RFU, CUX1 / Fold change vs veh, CUX1 / RFU, TTC7A / Fold change vs veh, TTC7A / RFU, TMEM135 / Fold change vs veh, TMEM135 / RFU, DEPTOR / Fold change vs veh, DEPTOR / RFU, CPM / Fold change vs veh, CPM / RFU, DNAJB6 / Fold change vs veh, DNAJB6 / RFU, CACNA2D3 / Fold change vs veh, CACNA2D3 / RFU, DTX4 / Fold change vs veh, DTX4 / RFU, TFCP2 / Fold change vs veh, TFCP2 / RFU, GMCL1 /// GMCL1P1 / Fold change vs veh, GMCL1 /// GMCL1P1 / RFU, AEBP2 / Fold change vs veh, AEBP2 / RFU, SNHG1 /// SNORD22 /// SNORD25 /// SNORD26 /// SNORD27 /// SNORD28 /// SNORD29 /// SNORD31 / Fold change vs veh, SNHG1 /// SNORD22 /// SNORD25 /// SNORD26 /// SNORD27 /// SNORD28 /// SNORD29 /// SNORD31 / Fold change (Aza/veh), C12orf56 (ProbeSet 11735607_a_at) / Fold change (ACY-1035/veh), C12orf56 (ProbeSet 11735607_a_at) / Fold change (Aza/veh), FGFR1OP (ProbeSet 11751329_s_at) / Fold change (ACY-1035/veh), FGFR1OP (ProbeSet 11751329_s_at) / Fold change (Aza/veh), VPS36 (ProbeSet 11739960_a_at) / Fold change (ACY-1035/veh), VPS36 (ProbeSet 11739960_a_at) / RFU SYPL1 (11715823_x_at) / Fold change /veh SYPL1 (11715823_x_at) / RFU IGFBP7 (11715501_s_at) / Fold change /veh IGFBP7 (11715501_s_at) / RFU REEP3 (11722064_at) / Fold change /veh REEP3 (11722064_at) / RFU IGLL1 (11728026_x_at) / Fold change /veh IGLL1 (11728026_x_at): dose or concentration left out as unconfirmed. To be noted: ProbeSet 11721559_s_at; LIST B.

Regarding `Nc1ncn([C@@H]2O[C@H](CO)[C@@H](O)[C@H]2O)c(=O)n1` [azacitidine], the “RFU, ZNF638 /// ZNF638-IT1” value came out at 347.20 RFU.
